Measurements as given in the NIST ThermoML archive (doi:10.1016/j.tca.2013.03.008).

Experiment: xn = mol fraction of the nth substance listed
Conditions: 101 kPa, Liquid; for viscosity: Capillary tube (Ostwald / Ubbelohde) method; for mass density: Vibrating tube method

CCOC(=O)CCl [ethyl chloroethanoate] + CCC(=O)CC
Conditions | mass density, 298.15 K [kg/m3] | mass density, 308.15 K [kg/m3] | mass density, 318.15 K [kg/m3] | viscosity, 298.15 K [mPa·s] | viscosity, 308.15 K [mPa·s] | viscosity, 318.15 K [mPa·s]
x2 = 0 | 1144.11 | 1131.46 | 1118.74 | 1.095 | 0.939 | 0.815
x2 = 0.0502 | 1127.54 | 1115 | 1102.39 | 1.05 | 0.902 | 0.783
x2 = 0.0877 | 1115.18 | 1102.73 | 1090.21 | 1.017 | 0.874 | 0.76
x2 = 0.1207 | 1104.29 | 1091.91 | 1079.49 | 0.987 | 0.85 | 0.741
x2 = 0.1692 | 1088.28 | 1076.05 | 1063.74 | 0.944 | 0.815 | 0.713
x2 = 0.2551 | 1059.87 | 1047.89 | 1035.82 | 0.87 | 0.756 | 0.666
x2 = 0.3266 | 1036.16 | 1024.36 | 1012.49 | 0.813 | 0.71 | 0.63
x2 = 0.413 | 1007.44 | 995.88 | 984.26 | 0.75 | 0.659 | 0.587
x2 = 0.4998 | 978.47 | 967.18 | 955.81 | 0.695 | 0.612 | 0.548
x2 = 0.574 | 953.63 | 942.56 | 931.39 | 0.653 | 0.575 | 0.517
x2 = 0.6638 | 923.44 | 912.62 | 901.71 | 0.604 | 0.533 | 0.48
x2 = 0.7475 | 895.2 | 884.6 | 873.95 | 0.562 | 0.498 | 0.449
x2 = 0.827 | 868.26 | 857.9 | 847.48 | 0.522 | 0.466 | 0.421
x2 = 0.9114 | 839.54 | 829.45 | 819.27 | 0.481 | 0.434 | 0.391

CCOC(=O)CCl [ethyl chloroethanoate] + CCC(C)O
Conditions | mass density, 298.15 K [kg/m3] | mass density, 308.15 K [kg/m3] | mass density, 318.15 K [kg/m3] | viscosity, 298.15 K [mPa·s] | viscosity, 308.15 K [mPa·s] | viscosity, 318.15 K [mPa·s]
x2 = 0 | 1144.11 | 1131.46 | 1118.74 | 1.095 | 0.934 | 0.816
x2 = 0.1008 | 1111.91 | 1099.43 | 1086.98 | 1.055 | 0.895 | 0.778
x2 = 0.204 | 1078.95 | 1066.72 | 1054.42 | 1.041 | 0.877 | 0.755
x2 = 0.2885 | 1051.67 | 1039.71 | 1027.56 | 1.033 | 0.875 | 0.756
x2 = 0.3625 | 1027.45 | 1015.7 | 1003.8 | 1.048 | 0.88 | 0.753
x2 = 0.45 | 998.34 | 986.92 | 975.3 | 1.107 | 0.895 | 0.759
x2 = 0.5384 | 968.29 | 957.21 | 945.94 | 1.183 | 0.945 | 0.791
x2 = 0.6138 | 942.27 | 931.52 | 920.57 | 1.246 | 0.987 | 0.817
x2 = 0.6906 | 915.31 | 904.95 | 894.31 | 1.332 | 1.063 | 0.866
x2 = 0.7724 | 886.17 | 876.24 | 865.99 | 1.489 | 1.182 | 0.947
x2 = 0.8541 | 856.59 | 847.12 | 837.33 | 1.789 | 1.367 | 1.089
x2 = 0.9197 | 832.49 | 823.43 | 814.03 | 2.183 | 1.611 | 1.225

CCC(=O)CC [pentan-3-one] + CCC(C)O
Conditions | mass density, 298.15 K [kg/m3] | mass density, 308.15 K [kg/m3] | mass density, 318.15 K [kg/m3] | viscosity, 298.15 K [mPa·s] | viscosity, 308.15 K [mPa·s] | viscosity, 318.15 K [mPa·s]
x1 = 0.0848 | 803.03 | 794.48 | 785.52 | 2.069 | 1.539 | 1.172
x1 = 0.1511 | 803.42 | 794.8 | 785.78 | 1.602 | 1.246 | 0.976
x1 = 0.2353 | 803.97 | 795.22 | 786.14 | 1.229 | 0.986 | 0.802
x1 = 0.3023 | 804.42 | 795.58 | 786.43 | 1.039 | 0.854 | 0.711
x1 = 0.3793 | 804.94 | 795.99 | 786.77 | 0.879 | 0.734 | 0.622
x1 = 0.4676 | 805.54 | 796.47 | 787.16 | 0.761 | 0.637 | 0.55
x1 = 0.4927 | 805.71 | 796.61 | 787.27 | 0.731 | 0.612 | 0.531
x1 = 0.5536 | 806.12 | 796.95 | 787.54 | 0.657 | 0.57 | 0.499
x1 = 0.6269 | 806.62 | 797.36 | 787.87 | 0.6 | 0.524 | 0.461
x1 = 0.7129 | 807.21 | 797.84 | 788.26 | 0.536 | 0.482 | 0.429
x1 = 0.8104 | 807.89 | 798.4 | 788.7 | 0.494 | 0.446 | 0.403
x1 = 0.9043 | 808.59 | 798.96 | 789.15 | 0.466 | 0.419 | 0.378
x1 = 1 | 809.38 | 799.55 | 789.63 | 0.442 | 0.398 | 0.362
